Results on 1 sequence are retold here after patent US9657081B2, “Inhibiting peptides derived from triggering receptor expressed on myeloid cells-1 (TREM-1) TREM-like transcript 1 (TLT-1) for treatment of cardiovascular diseases” (INSERM (Institut National de la Sante et de la Recherche …, priority 2013, dated 2017).

The experiment deals with TREM-1. Put plainly: Rat model of myocardial permanent ischemia (myocardial infarction), physiologic parameters and micro-TEP imaging. Type of experiment: in vivo. On the procedure: Adult male Wistar rats (360-380 g) were used. All rats were anaesthetized with ketamine (100 mg/kg, intramuscularly) and mechanically ventilated. After a left thoracotomy, the left coronary artery was identified and ligated with a 6-0 prolene surgical suture. LAD occlusion was confirmed by a change in myocardial color from red to white in the ischemia area (Left ventricle). The chest was closed and the skin was sutured with 6-0 silk. The animals returned to their cage where they were supervised until their complete recovery. The postoperative mortality rate of all rats was 20%.
After surgical LAD occlusion, importance of ischemic area was evaluated by micro-TEP imaging. Animals were then randomized to receive peptide (5 mg/kg) every 24 h for 5 days or placebo (vehicle).
A further evaluation was performed at 6 weeks by micro-TEP imaging and conductance catheter (Millar) in order to study the treatment effect on myocardial remodeling and myocardial function.
In all animals, approximately 70 MBq of ^18F-FDG (in a 0.3-0.5 ml volume) was injected intravenously and under a short anaesthesia (1.5-2.5% of isoflurane inhalation) 60 min prior to initiating PET recording. Recording was acquired in list mode under continuous anaesthesia by isoflurane, using a dedicated small animal PET system (Inveon, Siemens, Knoxville, Tenn., USA). The animals were positioned in the prone position and placed on a heating pad to maintain a body temperature within the normal range. The animals were connected to a standard ECG monitor by three electrodes placed on the inner surfaces of limb extremities. Recording times were 20 min for 18F emission and 6 min for 57Co transmission. The coincidence timing window was set to 3.4 ns and the energy window between 350 and 650 keV. Images were reconstructed in 16 cardiac intervals, providing a temporal resolution of 11-15 ms for common heart rate values. Under these conditions, the axial spatial resolution was less than 1.5 mm. In addition, on LV rat phantoms obtained by a stereolithography process, a precise determination of the actual cavity volumes was provided by FDG PET images above the level of 100 μl corresponding to the lower limit for the LV endsystolic volume in adult.
We finally investigated whether the modulation of the inflammatory response conferred by TREM-1- and TLT-1-derived peptides was able to translate into cardiac function improvement after a severe MI. We performed a permanent coronary artery ligation in rats before randomisation and imaging as described above.

For the setting “Baseline”, “LQEEDAGEYGCM (listed as Homo sapiens) [TLT1-LR12]” showed a Body weight of 313 ± 51 g, an EDV of 417 ± 92 µL, an EF of 48 ± 9% and an ESV of 215 ± 62 µL. Also, for the setting “Baseline”, the Heart rate stood at 400 ± 26 bpm, the “MI Areas” value is 22 ± 11 % of LV, the “MT Areas” value stood at 54 ± 30 mm^2 and the Systolic blood pressure came out at 136 ± 17 mmHg. Further, where the note is “Six weeks”, the Body weight is reported as 426 ± 49 g; the “Body weight, difference with baseline” value is given as 113 ± 51 g; the EDV came to 615 ± 161 µL; the “EDV, difference with baseline” value came out at 198 ± 95 µL. Besides, where the note is “Six weeks”, the EF is 50 ± 8%; the “EF, difference with baseline” value is listed as 2 ± 7%; the ESV was found to be 313 ± 128 µL; the “ESV, difference with baseline” value is 99 ± 80 µL. For the same sequence, for the setting “Six weeks”, the Heart rate is listed as 393 ± 23 bpm; the “Heart rate, difference with baseline” value is recorded as −8 ± 22 bpm; the “MI Areas (% of LV), difference with baseline” value is recorded as −6.0 ± 8.1 % of LV; the “MI Areas (mm^2), difference with baseline” value is −5 ± 23 mm^2. For the same sequence, under “Six weeks”, the Systolic blood pressure is 136 ± 17 mmHg and the “Systolic blood pressure, difference with baseline” value is recorded as −12 ± 26 mmHg.
